Test: Aqueous solubility (statements)

Acinetobacter polyelectrolyte exopolysaccharide [APE]
solubility in aqueous solutions versus pH: soluble throughout the pH range
